Measured values from PubChem BioAssay (NCI).
Several values for one entry are separate records, joined by “and”; a condition that tells them apart may be missing. Equal values may be shown once.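 Assay format: 96-well plates, 48-hour exposure. Here, GI50 denotes the concentration required for 50% inhibition of growth. At the TGI there is no net growth.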

Experiments:
Experiment in all cases: NCI tumour cell line growth inhibition, 48 h
P388/ADR leukemia = test system: P388/ADR leukemia
DLD-1 colon = test system: DLD-1 colon
P388 leukemia = test system: P388 leukemia
DMS 273 small cell lung = test system: DMS 273 small cell lung
DMS 114 small cell lung = test system: DMS 114 small cell lung
M19-MEL melanoma = test system: M19-MEL melanoma
HOP-18 NSCLC = test system: HOP-18 NSCLC
SN12K1 renal = test system: SN12K1 renal
KM20L2 colon = test system: KM20L2 colon
XF 498 CNS = test system: XF 498 CNS
RXF-631 renal = test system: RXF-631 renal
MDA-N = test system: MDA-N

| Compound | TGI (DLD-1 colon) | TGI (DMS 273 small cell lung) | TGI (DMS 114 small cell lung) | TGI (M19-MEL melanoma) | TGI (HOP-18 NSCLC) | TGI (KM20L2 colon) | TGI (XF 498 CNS) | TGI (RXF-631 renal) | TGI (MDA-N) | also measured |
| --- | --- | --- | --- | --- | --- | --- | --- | --- | --- | --- |
| O=C(O)/C=C/C(=O)N1C/C(=C\c2ccccc2)C(=O)/C(=C/c2ccccc2)C1 | 12.2 µM | 20 µM | 8.78 µM | 9.41 µM | 26.3 µM | 17.6 µM | 15.8 µM | – | – | TGI (P388/ADR leukemia): > 70.7 µM; TGI (P388 leukemia): 41.6 µM; TGI (SN12K1 renal): 3.57 µM |
| CC12Oc3ccc4ccccc4c3CC1Cc1c(ccc3ccccc13)O2 (stereo unspecified) | > 100 µM | 74.9 µM | > 100 µM | > 100 µM | 98.7 µM | > 100 µM | – | – | – | – |
| O=C(O)CCSC(=O)Nc1ccc(N=Nc2ccccc2)cc1 | > 100 µM | > 100 µM | > 100 µM | – | > 100 µM | > 100 µM | > 100 µM | > 100 µM | – | – |
| O=C(Nc1ccc(Cl)c(Cl)c1)OCCN1c2ccccc2Sc2ccccc21 | – | – | – | – | – | – | – | – | > 10 µM | – |
| CSc1cccc(NC(=O)OC2CCCCCCCCCCC2)c1 | – | – | – | – | – | – | – | – | 60.8 µM | – |
| [Cl][Cd][Cl] | – | 31.2 µM | > 55 µM | 24.1 µM | > 62.1 µM | – | 43.1 µM | > 88.9 µM | 21.4 µM | GI50 (DLD-1 colon): > 58.6 µM; GI50 (RXF-631 renal): 38.8 µM; GI50 (DMS 273 small cell lung): 15.1 µM; GI50 (DMS 114 small cell lung): 25.8 µM; GI50 (M19-MEL melanoma): 11.2 µM; GI50 (HOP-18 NSCLC): > 42.3 µM; GI50 (MDA-N): 4.61 µM and 8.24 µM; GI50 (XF 498 CNS): 23.4 µM |
| COc1cc2c(c(OC3OC(CO)C(O)C(O)C3O)c1)C(=O)CC(c1ccc(O)cc1)O2 (stereo unspecified) | – | – | – | – | – | – | – | – | > 100 µM | – |
| CN(C)C(=S)/N=c1\ss/c(=N\S(=O)(=O)c2ccccc2)n1N(C)C | > 100 µM | > 100 µM | 85.9 µM | > 100 µM | > 100 µM | > 100 µM | – | > 100 µM | – | – |
| NCCSCCc1ccccc1 | – | – | – | – | – | – | – | – | > 100 µM | – |
| c1ccc2c(c1)C1=NCCN1c1ccccc1-2 | 9.02 µM | 4.88 µM | – | 11 µM | 9.19 µM | 14.2 µM | – | 9.69 µM | – | – |
| CCC(Oc1ccc(OC)c2ccccc(=O)c12)C(=O)O (stereo unspecified) | – | > 100 µM | > 100 µM | > 100 µM | – | – | – | > 100 µM | – | – |
| O=C(NS(=O)(=O)c1ccccc1)C(Cc1ccccc1)C(Cc1ccccc1)C(=O)NS(=O)(=O)c1ccccc1 (stereo unspecified) | > 100 µM | > 100 µM | > 100 µM | > 100 µM | > 100 µM | > 100 µM | – | – | – | – |
| Cc1cccc(Nc2cnc(N)nc2N)c1 | – | – | – | – | – | – | – | – | > 100 µM | – |
| CN1CC(=O)N(C)c2nc[nH]c2C1=O | > 100 µM | > 100 µM | > 100 µM | > 100 µM | > 100 µM | – | > 100 µM | > 100 µM | – | – |
| COC(=O)CCC(=O)NC1C2CC3CC(C2)CC1C3 (stereo unspecified) | > 100 µM | > 100 µM | > 100 µM | > 100 µM | > 100 µM | > 100 µM | > 100 µM | > 100 µM | – | – |
| COC1=C2CC(C)CC(OC)C(O)C(C)/C=C(\C)C(OC(N)=O)C(OC)/C=C\C=C(/C)C(=O)NC(=C(/C=N/N3CCCCC3)C1=O)C2=O (stereo unspecified) | 23.4 µM | 27.6 µM | – | 19 µM | 27.2 µM | 10.1 µM | 19.9 µM | 35.1 µM | – | – |
| CC1=C(/C=C/C(C)=C/C=C/C(C)=C/CO)C(C)(C)CCC1 | – | – | – | – | – | – | – | – | > 100 µM | – |
| Cc1cccc2nc3cccc(C(=O)NCCN(C)C)c3nc12 | 21.8 µM | 4.17 µM | 3.13 µM | 3.25 µM | 84 µM | – | – | – | – | – |
| O=[N+]([O-])c1ccc(S(=O)(=O)Cc2ccccc2)c2nonc12 | – | – | – | – | – | – | – | – | 40.9 µM | – |
| Cc1ccccc1-n1c(C)nc(-c2ccccc2)cc1=O | > 100 µM | > 100 µM | > 100 µM | > 100 µM | > 100 µM | > 100 µM | – | > 100 µM | – | – |
| CC(Br)C(=O)Nc1ccc(C(=O)O)c(O)c1 (stereo unspecified) | – | – | – | – | – | – | – | – | > 100 µM | – |
| O=C1C=CC(CC(=O)c2ccc3ccccc3c2)O1 (stereo unspecified) | 80.6 µM | 45.3 µM | – | > 100 µM | > 100 µM | 34.7 µM | > 100 µM | – | – | – |

| Compound | TGI (DLD-1 colon) | TGI (DMS 273 small cell lung) | TGI (DMS 114 small cell lung) | TGI (M19-MEL melanoma) | TGI (HOP-18 NSCLC) | TGI (KM20L2 colon) | TGI (XF 498 CNS) | TGI (RXF-631 renal) | TGI (MDA-N) | also measured |
| --- | --- | --- | --- | --- | --- | --- | --- | --- | --- | --- |
| C=C1[C@@H]([C@@]2(C)C=CC(=O)C(C)(C)[C@@H]2CC(=O)OC)CC[C@@]2(C)C(c3ccoc3)OC(=O)[C@H]3O[C@]132 (stereo partly specified) | – | – | – | – | – | – | – | – | > 100 µM | – |
| C[C@H]1C(=O)CC[C@]2(C)CCC(C(C)(C)O)CC12O (stereo partly specified) | > 100 µM | > 100 µM | > 100 µM | – | > 100 µM | > 100 µM | – | > 100 µM | – | – |
| CCOC(=O)c1c(C)c(C)n2c1NC(=O)C2 | > 100 µM | > 100 µM | > 100 µM | > 100 µM | > 100 µM | > 100 µM | 61.1 µM | > 100 µM | > 100 µM | – |
| C=CS(=O)(=O)CCN1CC1 | – | – | – | – | – | – | – | – | > 10 µM | – |
| O=S(=O)(C/C(=N\O)c1ccccc1)c1ccccc1 | > 100 µM | > 100 µM | – | > 100 µM | > 100 µM | > 100 µM | > 100 µM | > 100 µM | – | – |
| CCCCCCC(/C=N/O)C(C)(O)CCC (stereo unspecified) | > 100 µM | > 100 µM | > 100 µM | > 100 µM | – | > 100 µM | > 100 µM | – | – | – |
| O=C(O)C1=C(C(=O)Nc2ccc(NC(=O)C3=C(C(=O)O)C4C=CC3C4)cc2)C2C=CC1C2 | > 100 µM | > 100 µM | > 100 µM | > 100 µM | > 100 µM | > 100 µM | > 100 µM | – | – | – |
| Nn1c(N=Nc2c(O)[nH]c3c(Cl)cc(Cl)cc23)n[nH]c1=S | > 100 µM | – | > 100 µM | > 100 µM | > 100 µM | > 100 µM | – | – | – | – |
| O=C1c2nc3n(c2C(=O)c2c1nc1n2CCC1)CCC3 | 18.2 µM | 12.7 µM | 5.29 µM | 0.387 µM | 27.2 µM | 11.4 µM | 19.6 µM | – | 3.47 µM | – |
| COC(=O)C1=C(c2ccc3c(c2)OCO3)OC(c2cc(OC)c(OC)c(OC)c2)C1 (stereo unspecified) | > 100 µM | 58.8 µM | 9.33 µM | > 100 µM | > 100 µM | – | > 100 µM | – | – | – |
| O=C(O)c1ccccc1NC(=O)C1CCCCC1 | > 100 µM | > 100 µM | > 100 µM | > 100 µM | – | > 100 µM | > 100 µM | > 100 µM | – | – |
| COC(=O)C1=CC2OC1(C)CCC2=O (stereo unspecified) | > 100 µM | > 100 µM | – | – | – | > 100 µM | > 100 µM | – | – | – |
| CN1C(Cl)=NS(=O)(=O)c2ccccc21 | – | – | – | – | – | – | – | – | > 100 µM | – |
| O=C1OC(c2ccccc2)=N/C1=C\c1cccc(F)c1 | – | – | – | – | – | – | – | – | > 100 µM | – |
| COc1ccc2nc(NC(=O)C(=O)C(C#N)c3ccc(Cl)c(Cl)c3)sc2c1 (stereo unspecified) | > 100 µM | > 100 µM | > 100 µM | > 100 µM | – | > 100 µM | > 100 µM | > 100 µM | – | – |
| O=C1NC(=O)C2C1N(Cc1ccccc1)C(=O)N2Cc1ccccc1 (stereo unspecified) | > 100 µM | – | > 100 µM | > 100 µM | – | > 100 µM | > 100 µM | > 100 µM | – | – |
| CC1=CC(=O)N(c2c(C)cccc2Cl)C(C)N1 (stereo unspecified) | > 100 µM | > 100 µM | > 100 µM | > 100 µM | > 100 µM | > 100 µM | – | > 100 µM | – | – |
| CC(=O)Oc1ccc(C(c2ccc(OC(C)=O)cc2)c2ccccn2)cc1 | > 100 µM | > 100 µM | > 68.4 µM | > 100 µM | > 100 µM | > 100 µM | > 86.1 µM | > 100 µM | > 100 µM | – |
| O=[N+]([O-])c1ccc(Cl)cc1C1SCc2nc3ccccc3n21 (stereo unspecified) | > 100 µM | > 100 µM | > 100 µM | > 100 µM | > 100 µM | > 100 µM | > 100 µM | > 100 µM | – | – |
| COc1ccc2c(c1OC)C(=O)c1cnccc1C2=O | > 100 µM | > 100 µM | > 100 µM | > 100 µM | > 100 µM | > 100 µM | > 100 µM | > 100 µM | – | – |
| O=C(CC1C(=O)Nc2ccccc2S1=O)Nc1ccc(Cl)cc1 (stereo unspecified) | > 100 µM | > 100 µM | – | – | – | > 100 µM | – | – | – | – |
| O=C1C2Nc3ccccc3SC2C(=O)N1c1ccccc1C(F)(F)F (stereo unspecified) | > 100 µM | – | > 100 µM | > 100 µM | > 100 µM | – | 53.2 µM | – | – | – |
